Data published in patent US12491173B2, “Metabolism-improving agent comprising rare fatty acid” (Noster Inc., priority 2014, dated 2025).

Experiments:
[1] = target: T1, fusion protein of PPARγ ligand binding region and GAL4 DNA binding region (Homo sapiens, UniProt P37231); assay: PPARγ ligand activity, GAL4 fusion luciferase reporter assay in CV-1 cell; assay type: cell-based; conditions: sample 10 μM and 30 μM, vs ethanol negative control, FIG. 3
T1 construct: expressed in transfected cells; host or cells: CV-1 cell
T1 sequence (P37231 238-503 limits assumed): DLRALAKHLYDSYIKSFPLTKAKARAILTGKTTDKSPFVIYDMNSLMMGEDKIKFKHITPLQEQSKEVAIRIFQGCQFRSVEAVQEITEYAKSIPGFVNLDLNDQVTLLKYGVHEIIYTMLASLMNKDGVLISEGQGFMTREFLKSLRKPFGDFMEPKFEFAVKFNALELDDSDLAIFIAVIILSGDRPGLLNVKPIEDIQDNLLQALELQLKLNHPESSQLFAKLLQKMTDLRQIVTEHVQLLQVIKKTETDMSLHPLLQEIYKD
Procedure: (§1) To evaluate the function of hydroxylated fatty acid and oxo fatty acid and the like, PPARα, γ-activating action was measured first. The measurement was performed in reference to Nobuyuki Takahashi et al., FEBS Letters 514 (2002) p. 315-322, “Dual action of isoprenols from herbal medicines on both PPARgamma and PPARalpha in 3T3-L1 adipocytes and HepG2 hepatocytes.”, the section of Materials and Methods “Reporter plasmids and luciferase assays”. To be specific, PPARα,γ ligand activity was measured by a reporter assay that evaluates binding to a fusion protein of PPAR ligand binding region and GAL4 DNA binding region and target gene activation, based on the expression of luciferase. Specifically, a plasmid comprising a DNA encoding a fusion protein of PPARα,γ ligand binding region and GAL4 DNA binding region and a reporter plasmid wherein luciferase linked to GAL4 bound DNA sequence were introduced into CV-1 cell, a ligand described below was added to the cell, the cell was incubated and the luciferase activity was detected.
(§2) The concentration (10 μM and 30 μM) of the sample was adjusted with ethanol. Ethanol was used as a negative control, and PPARα,γ ligands GW7647 (10 nM) and troglitazone (5 μM) were used as a positive control.

[2] = target: T2, fusion protein of PPARα ligand binding region and GAL4 DNA binding region (Homo sapiens, UniProt Q07869); assay: PPARα ligand activity, GAL4 fusion luciferase reporter assay in CV-1 cell; assay type: cell-based; conditions: sample 10 μM and 30 μM, vs ethanol negative control, FIG. 2
T2 construct: expressed in transfected cells; host or cells: CV-1 cell
T2 sequence (Q07869 239-466 limits assumed): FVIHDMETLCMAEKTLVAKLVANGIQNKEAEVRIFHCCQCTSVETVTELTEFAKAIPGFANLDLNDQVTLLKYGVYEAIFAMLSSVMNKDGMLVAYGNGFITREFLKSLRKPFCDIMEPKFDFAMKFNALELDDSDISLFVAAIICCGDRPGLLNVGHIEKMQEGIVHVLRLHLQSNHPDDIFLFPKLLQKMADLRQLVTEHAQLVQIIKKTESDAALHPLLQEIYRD
Procedure: as §1, §2

PPARγ agonist activity (relative luciferase activity) [1] | PPARα agonist activity (relative luciferase activity) [2] | SMILES
strong PPARγ agonist activity | – | CC/C=C\CC(=O)CC/C=C\CCCCCCCC(=O)O [13-OXO ALA, 13-oxo-cis-9,cis-15-octadecadienoic acid]
– | strong PPARα agonist activity | CCCCCC(=O)CC/C=C\C/C=C\CCCCC(=O)O [13-OXO GLA, 13-oxo-cis-6,cis-9-octadecadienoic acid]
